Data reported in ChEMBL document CHEMBL1125230, “Analysis of the in vitro antitumor activity of novel purine-6-sulfenamide, -sulfinamide, and -sulfonamide nucleosides and certain related compounds using a computer-aided receptor modeling procedure” (1991).

Tested on: L1210
Test: In vitro growth inhibition of L1210 tumor cells
Format: functional, Mus musculus

Structure (SMILES) | Log 1/ID50
NS(=O)(=O)c1ncnc2c1ncn2[C@@H]1O[C@H](CO)[C@@H](O)[C@@H]1O | 4
NS(=O)(=O)c1ncnc2c1ncn2[C@@H]1O[C@H](CO)[C@@H](O)[C@H]1O | 4.92
NSc1nc(N)nc2c1ncn2[C@H]1C[C@H](O)[C@@H](CO)O1 | 6.06
NSc1ncnc2c1ncn2[C@H]1C[C@H](O)[C@@H](CO)O1 | 6.66
NS(=O)(=O)c1ncnc2c1ncn2[C@H]1C[C@H](O)[C@@H](CO)O1 | 4.56
NSc1ncnc2c([C@@H]3O[C@H](CO)[C@@H](O)[C@H]3O)n[nH]c12 | 4.69
N=C1N=C(S)C2N=CN([C@H]3C[C@H](O)[C@@H](CO)O3)C2=N1 (stereo partly specified) | 7.3
NSc1ncnc2c1ncn2C1O[C@H](CO)[C@@H](O)[C@H]1O (stereo partly specified) | 5.22
C[C@H]1OC(n2cnc3c(SN)nc(N)nc32)[C@H](O)[C@@H]1O (stereo partly specified) | 6
Nc1nc(S(N)(=O)=O)c2ncn(C3O[C@H](CO)[C@@H](O)[C@H]3O)c2n1 (stereo partly specified) | 5.7
NC(=O)c1ncnc2c1cnn2C1O[C@H](CO)[C@@H](O)[C@H]1O (stereo partly specified) | 4.38
NSc1nc(N)nc2c1ncn2C1O[C@H](CO)[C@@H](O)[C@H]1O (stereo partly specified) | 6.52
C[C@H]1OC(n2cnc3c(S(N)(=O)=O)nc(N)nc32)[C@H](O)[C@@H]1O (stereo partly specified) | 5.42
NSc1ncnc2c1cnn2C1O[C@H](CO)[C@@H](O)[C@H]1O (stereo partly specified) | 4.51
Nc1nc([S+](N)[O-])c2ncn([C@@H]3C[C@@H](O)[C@H](CO)O3)c2n1 (mixture of isomers) | 4.45
N[S+]([O-])c1ncnc2c1ncn2[C@@H]1C[C@@H](O)[C@H](CO)O1 (mixture of isomers) | 4.6
Nc1cc2c(ncn2C2O[C@H](CO)[C@@H](O)[C@H]2O)c([S+](N)[O-])n1 (mixture of isomers) | 3
Nc1nc([S+](N)[O-])c2ncn(C3O[C@H](CO)[C@@H](O)[C@H]3O)c2n1 (mixture of isomers) | 6
N[S+]([O-])c1ncnc2c1ncn2C1O[C@H](CO)[C@@H](O)[C@H]1O (mixture of isomers) | 4
C[C@H]1OC(n2cnc3c([S+](N)[O-])nc(N)nc32)[C@H](O)[C@@H]1O (mixture of isomers) | 5.55
Nc1nc([S+](N)[O-])c2ncn([C@@H]3C[C@@H](O)[C@H](CO)O3)c2n1 (stereo in doubt; 9) | 5.52
